Here are results for 6 compounds from ChEMBL document CHEMBL1127237, “Analogs of UK 14,304 as 2-adrenoceptor agonists. Twist and agent polarity as design elements” (Bioorg Med Chem Lett, 1994).

Data set [1] addresses T1, Adrenergic receptor alpha-1 (Homo sapiens, UniProt P35348+P25100+P35368).
T1 sequence (P35348 whole entry): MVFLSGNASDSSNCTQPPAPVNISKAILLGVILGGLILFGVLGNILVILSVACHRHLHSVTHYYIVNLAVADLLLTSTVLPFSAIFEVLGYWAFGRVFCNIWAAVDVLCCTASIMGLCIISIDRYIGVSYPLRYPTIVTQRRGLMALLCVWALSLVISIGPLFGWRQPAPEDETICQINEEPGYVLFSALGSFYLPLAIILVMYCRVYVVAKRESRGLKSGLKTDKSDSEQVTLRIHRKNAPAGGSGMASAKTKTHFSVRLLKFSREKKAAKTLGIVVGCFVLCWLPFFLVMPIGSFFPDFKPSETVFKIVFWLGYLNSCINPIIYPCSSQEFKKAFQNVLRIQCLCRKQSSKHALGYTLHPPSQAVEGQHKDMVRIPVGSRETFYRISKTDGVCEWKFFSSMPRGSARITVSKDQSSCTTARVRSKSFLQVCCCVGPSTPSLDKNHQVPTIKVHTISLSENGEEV
T1 sequence (P25100 whole entry): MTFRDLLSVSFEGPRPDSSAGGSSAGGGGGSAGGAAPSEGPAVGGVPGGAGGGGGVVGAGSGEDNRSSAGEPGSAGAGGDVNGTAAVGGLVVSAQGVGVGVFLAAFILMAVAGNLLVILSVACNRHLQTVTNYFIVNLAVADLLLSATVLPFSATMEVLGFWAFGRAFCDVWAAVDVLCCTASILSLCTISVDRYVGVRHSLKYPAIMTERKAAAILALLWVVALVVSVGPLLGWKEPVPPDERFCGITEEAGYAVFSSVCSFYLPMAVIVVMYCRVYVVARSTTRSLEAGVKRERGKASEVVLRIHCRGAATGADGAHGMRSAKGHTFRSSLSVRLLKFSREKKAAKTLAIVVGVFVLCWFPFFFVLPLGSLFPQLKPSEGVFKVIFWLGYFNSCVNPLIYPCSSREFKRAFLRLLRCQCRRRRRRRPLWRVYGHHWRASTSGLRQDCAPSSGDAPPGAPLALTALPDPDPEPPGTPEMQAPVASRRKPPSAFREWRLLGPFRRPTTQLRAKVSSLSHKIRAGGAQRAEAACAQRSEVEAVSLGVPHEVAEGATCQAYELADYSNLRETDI
T1 sequence (P35368 whole entry): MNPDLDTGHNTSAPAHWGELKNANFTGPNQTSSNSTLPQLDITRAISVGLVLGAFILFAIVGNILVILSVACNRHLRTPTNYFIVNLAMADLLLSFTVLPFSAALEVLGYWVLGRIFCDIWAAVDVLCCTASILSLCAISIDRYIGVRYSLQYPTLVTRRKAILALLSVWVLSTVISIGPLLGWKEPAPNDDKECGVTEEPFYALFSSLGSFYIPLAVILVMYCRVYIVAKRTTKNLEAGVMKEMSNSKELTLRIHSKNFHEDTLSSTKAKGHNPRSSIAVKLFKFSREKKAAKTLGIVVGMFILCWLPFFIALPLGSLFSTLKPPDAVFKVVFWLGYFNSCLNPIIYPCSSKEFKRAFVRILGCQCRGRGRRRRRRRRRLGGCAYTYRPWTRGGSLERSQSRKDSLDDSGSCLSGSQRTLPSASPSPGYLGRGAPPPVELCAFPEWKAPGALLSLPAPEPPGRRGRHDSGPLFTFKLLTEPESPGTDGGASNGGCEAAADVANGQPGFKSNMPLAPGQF
Nature of the data set: Binding affinity towards Alpha-1 adrenergic receptor in human brain.

Data set [2] deals with T2, Adrenergic receptor alpha-2 (Homo sapiens, UniProt P08913+P18825+P18089).
T2 sequence (P08913 whole entry): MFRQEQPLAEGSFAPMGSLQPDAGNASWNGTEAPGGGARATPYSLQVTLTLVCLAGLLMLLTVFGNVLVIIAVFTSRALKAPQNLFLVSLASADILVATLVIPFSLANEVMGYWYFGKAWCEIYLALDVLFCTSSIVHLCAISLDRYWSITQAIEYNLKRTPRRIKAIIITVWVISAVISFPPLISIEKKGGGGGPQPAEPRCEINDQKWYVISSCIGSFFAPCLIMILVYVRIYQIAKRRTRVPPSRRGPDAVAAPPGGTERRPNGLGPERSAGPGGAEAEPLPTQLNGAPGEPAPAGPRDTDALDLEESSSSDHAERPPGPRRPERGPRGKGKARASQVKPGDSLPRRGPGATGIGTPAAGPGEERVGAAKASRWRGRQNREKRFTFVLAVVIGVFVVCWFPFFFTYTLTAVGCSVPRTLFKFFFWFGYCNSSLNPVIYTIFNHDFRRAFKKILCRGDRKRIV
T2 sequence (P18825 whole entry): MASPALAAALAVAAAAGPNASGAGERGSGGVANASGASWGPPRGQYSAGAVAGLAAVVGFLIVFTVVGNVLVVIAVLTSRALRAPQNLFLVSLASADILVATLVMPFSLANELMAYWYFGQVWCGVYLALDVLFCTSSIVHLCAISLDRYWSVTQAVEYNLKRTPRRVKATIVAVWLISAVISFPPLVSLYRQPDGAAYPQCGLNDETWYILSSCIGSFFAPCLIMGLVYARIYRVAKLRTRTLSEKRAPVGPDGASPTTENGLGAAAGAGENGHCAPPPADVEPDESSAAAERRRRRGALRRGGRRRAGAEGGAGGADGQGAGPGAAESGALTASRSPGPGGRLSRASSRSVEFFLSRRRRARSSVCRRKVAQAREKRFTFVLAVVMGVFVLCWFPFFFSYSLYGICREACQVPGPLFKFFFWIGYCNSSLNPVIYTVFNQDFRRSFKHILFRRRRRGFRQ
T2 sequence (P18089 whole entry): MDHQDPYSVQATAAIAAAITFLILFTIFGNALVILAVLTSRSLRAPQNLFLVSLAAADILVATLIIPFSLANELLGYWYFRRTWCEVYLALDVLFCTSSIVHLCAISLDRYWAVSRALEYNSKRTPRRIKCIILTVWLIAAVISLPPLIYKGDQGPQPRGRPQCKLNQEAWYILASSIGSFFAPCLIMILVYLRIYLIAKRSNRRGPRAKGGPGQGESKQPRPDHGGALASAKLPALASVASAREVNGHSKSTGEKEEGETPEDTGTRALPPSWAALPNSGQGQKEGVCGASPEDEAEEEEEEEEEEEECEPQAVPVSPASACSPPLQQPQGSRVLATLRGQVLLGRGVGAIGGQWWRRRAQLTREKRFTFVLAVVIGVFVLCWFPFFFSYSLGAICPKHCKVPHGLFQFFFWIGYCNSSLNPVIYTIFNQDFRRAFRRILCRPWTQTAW
The experiment in a line: Binding affinity towards Alpha-2 adrenergic receptor in HT-29 cells. The class given is cell-based.

Data set [3] is described as follows: Distribution coefficient between octanol and pH 7.2 phosphate buffer. The class given is physicochemical. As to conditions: for logD: octanol/phosphate buffer.

As for `c1cc2c(cc1NC1=NCCN1)NCCN2`, the results for the inhibition constant Ki in data set [1] and in data set [2] were 5100 nM and 46 nM, respectively.
`Cc1c(NC2=NCCN2)ccc2nccnc12` registered a logD in data set [3] of 0.16. Moreover, the Ki in data set [1] is given as 1400 nM; in data set [2] it was 1.3 nM.
`Cc1c(NC2=NCCN2)ccc2c1NCCN2`: the logD in data set [3] was -2.08. Moreover, the values for the Ki in data set [1] and in data set [2] were 8700 nM and 6.8 nM, respectively.
Regarding `c1cnc2cc(NC3=NCCN3)ccc2n1`, the Ki in data set [1] is reported as 11000 nM; in data set [2], 64 nM.
For the compound `Brc1c(NC2=NCCN2)ccc2c1NCCN2`, the log distribution coefficient (logD) in data set [3] is -1.74. Further, the figures for the Ki in data set [1] and in data set [2] were 1100 nM and 6 nM, respectively.
Consider `Brc1c(NC2=NCCN2)ccc2nccnc12` [BRIMONIDINE], for which the “Log DC” value in data set [3] (octanol/water) is 1.5.

As usually defined, the Ki is a dissociation constant, usually derived from enzyme kinetics or from competition with a known ligand. Low readings indicate tighter binding, high ones weaker binding. As a reminder, the logD is lipophilicity at a set pH, counting ionised and neutral species. Low readings indicate lower lipophilicity, high ones higher lipophilicity.
